Converted amounts (≈) assume the structure as drawn. Like-named read-outs stand apart in the source and are kept apart here.
Experiments:
Assay type in all cases: cell-based
CTLL-2 cells = assay: suppression of proliferation of IL-2-dependent mouse cell line CTLL-2 induced by IL-2; details: IL-2 50 U/ml
Experimental: IL-2-dependent mouse cell line CTLL-2 cells were suspended in the RPMI1640 culture medium supplemented with 30% FCS to the concentration of 4×10^5 cells/ml. Fifty μl of the cell suspension, 50 μl of 200 U/ml recombinant human IL-2 (rhIL-2) and 100 μl of the test substance were added to a 96-well flat-bottomed microtest plate. […] The percent suppression (%) was calculated by the following formula. [formula]

[1] = system: human allogenic MLR (human peripheral blood lymphocytes); assay: human allogenic MLR-suppressive activity, 3H-thymidine uptake; details: for suppressive activity in human allogenic MLR (in words): 1 to 0.0001 μg/ml
Experimental: The human allogenic MLR-suppressive activity was assayed as follows:
Human peripheral blood lymphocytes obtained by Ficoll-Paque density gradient centrifugation of normal human peripheral blood were suspended in the RPMI1640 culture medium supplemented with 10% FCS, placed in a plastic dish, and cultured in an atmosphere of 5% carbon dioxide and 95% air at 37° C. for 2 hours. After termination of culture, the supernatant after gentle pipetting was collected and centrifuged (1000 rpm, for 5 minutes) to obtain plastic-nonadherent cells. The plastic-nonadherent cells were allowed to pass through a nylon-wool column to give nylon-nonadherent cells, and the concentration of the cell suspension was adjusted to 4×10^6 cells/ml by using the RPMI1640 culture medium supplemented with 10% FCS, and used as the responder cell suspension.
The plastic-adherent cells were removed from the plastic dish by vigorous pipetting after addition of phosphate buffered saline (PBS) supplemented with 5% FCS and 0.02% disodium ethylenediaminetetraacetic acid (EDTA). The plastic-adherent cells were treated with 40 μg/ml of mitomycin C at 37° C. for 60 minutes, washed three times, and suspended to the concentration of 4×10^6 cells/ml in the RPMI1640 culture medium supplemented with 10% FCS. The resultant suspension was used as the stimulator cell suspension.
After termination of culture, 37 KBq/well of ^3 H-thymidine was added, and after 18 hours of culture, the cells were harvested by a cell-harvester. The radioactivity incorporated into the cells was measured by a liquid scintillation counter, which was used as an index of blastogenic response of lymphocytes in human allogenic MLR. The suppression of human allogenic MLR was evaluated by calculating the percent suppression by the following formula. [formula]

[2] = system: mouse allogenic MLR (BALB/c mouse spleen cells stimulated with C57BL/6 mouse spleen cells); assay: mouse allogenic mixed lymphocyte reaction (MLR), 3H-thymidine uptake; details: for inhibition at 0.0001 µg/mL / inhibition at 0.001 µg/mL / inhibition at 0.01 µg/mL / inhibition at 0.1 µg/mL / inhibition at 1 µg/mL / IC50: Mus musculus, Lymphocyte; for inhibition at 0.0001 µg/mL / inhibition at 0.001 µg/mL / inhibition at 0.01 µg/mL / inhibition at 0.1 µg/mL / inhibition at 1 µg/mL: read-out: Suppression; for IC50: read-out: 50%-inhibition concentration (IC50) in mouse allogenic MLR
Experimental: The immunosuppressive activity of the compounds was assayed on the basis of mouse allogenic mixed lymphocyte reaction (hereinafter sometimes abbreviated as MLR). Mouse allogenic MRL was carried out using a mixed culture of BALB/c mouse (H-2^d) spleen cells as the responder cells and mitomycin C-treated C57BL/6 ([…]) mouse spleen cells as the stimulator cells in equal amounts.
The responder cells were prepared as follows:
The spleen was resected from 5- to 6-week-old BALB/c mice, and single cell suspension of spleen cells was prepared by using the RPMI1640 culture medium (containing 60 μg/ml of kanamycin sulfate, 2 mM of L-glutamine, 10 mM of N-2-hydroxyethylpiperazine-N'-2-ethanesulphonate (HEPES) and 0.1% sodium hydrogencarbonate) to which heat-inactivated fetal calf serum (hereinafter sometimes abbreviated as FCS) had been added to 5%. After hemolytic treatment, the cell suspension was adjusted to a concentration of 10^7 cells/ml with the RPMI1640 culture medium supplemented with 10^-4 M 2-mercapto-ethanol and 20% FCS, and was used as the responder cell suspension.
The stimulator cells were prepared as follows: The spleen was resected from 5- to 6-week-old male C57BL/6 mice, and a single cell suspension of spleen cells was prepared by using the RPMI1640 culture medium. After hemolytic treatment, the cells were treated with 40 μg/ml of mitomycin C at 37° C. for 60 minutes. After washing three times, the cell suspension was adjusted to a concentration of 10^7 cells/ml with the RPMI1640 culture medium supplemented with 10^-4 M 2-mercapto-ethanol and 20% FCS, and was used as the stimulator cell suspension.
The blastogenesis of lymphocytes was assayed using ^3 H-thymidine uptake as an index. That is, after termination of culture, 18.5 KBq/well of ^3 H-thymidine was added thereto and the suspension was cultured for 4 hours. Cells were harvested by a cell-harvester, and the radioactivity incorporated into the cells was determined by a liquid scintillation counter, which was used as an index of blastogenesis of lymphocytes in the mouse allogenic MLR. The suppression of the mouse allogenic MLR was evaluated by calculating the percent suppression by the following formula.
The test substance dissolved in methanol was diluted with the RPMI1640 culture medium and put to use.

[3] = Homo sapiens, Lymphocyte, 0.0001 μg/ml, Donor A/Donor B, read-out: Suppression
[4] = Homo sapiens, Lymphocyte, 0.0001 μg/ml, Donor C/Donor D, read-out: Suppression
[5] = Homo sapiens, Lymphocyte, 0.001 μg/ml, Donor A/Donor B, read-out: Suppression
[6] = Homo sapiens, Lymphocyte, 0.001 μg/ml, Donor C/Donor D, read-out: Suppression
[7] = Homo sapiens, Lymphocyte, 0.01 μg/ml, Donor A/Donor B, read-out: Suppression
[8] = Homo sapiens, Lymphocyte, 0.01 μg/ml, Donor C/Donor D, read-out: Suppression
[9] = Homo sapiens, Lymphocyte, 0.1 μg/ml, Donor A/Donor B, read-out: Suppression
[10] = Homo sapiens, Lymphocyte, 0.1 μg/ml, Donor C/Donor D, read-out: Suppression
[11] = Homo sapiens, Lymphocyte, 1 μg/ml, Donor A/Donor B, read-out: Suppression
[12] = Homo sapiens, Lymphocyte, 1 μg/ml, Donor C/Donor D, read-out: Suppression

Compound: CCCCCCCCCCCCC/C=C/C[C@@H](O)[C@H](O)[C@@](N)(CO)C(=O)O [Example 5]
- optical density (OD570) (CTLL-2 cells; 0.01 μg/ml, Table 6B): 0.915
- optical density (OD570) (CTLL-2 cells; 0.1 μg/ml, Table 6B): 0.322
- optical density (OD570) (CTLL-2 cells; 1 μg/ml, Table 6B): 0.239
- inhibition at 0.01 µg/mL (CTLL-2 cells; Mus musculus, CTLL-2, 68 h, 0.01 μg/ml, Table 6B, read-out: Suppression): 4.9%
- inhibition at 0.1 µg/mL (CTLL-2 cells; Mus musculus, CTLL-2, 68 h, 0.1 μg/ml, Table 6B, read-out: Suppression): 68.3%
- inhibition at 1 µg/mL (CTLL-2 cells; Mus musculus, CTLL-2, 68 h, 1 μg/ml, Table 6B, read-out: Suppression): 77.2%
- 3H-thymidine uptake ([1]; 0.00001 μg/ml, Donor A/Donor B): 14723 cpm
- 3H-thymidine uptake ([1]; 0.0001 μg/ml, Donor A/Donor B): 8052 cpm
- 3H-thymidine uptake ([1]; 0.0001 μg/ml, Donor C/Donor D): 15723 cpm
- 3H-thymidine uptake ([1]; 0.001 μg/ml, Donor A/Donor B): 5363 cpm
- 3H-thymidine uptake ([1]; 0.001 μg/ml, Donor C/Donor D): 7145 cpm
- 3H-thymidine uptake ([1]; 0.01 μg/ml, Donor A/Donor B): 5042 cpm
- 3H-thymidine uptake ([1]; 0.01 μg/ml, Donor C/Donor D): 5878 cpm
- 3H-thymidine uptake ([1]; 0.1 μg/ml, Donor A/Donor B): 4660 cpm
- 3H-thymidine uptake ([1]; 0.1 μg/ml, Donor C/Donor D): 4703 cpm
- 3H-thymidine uptake ([1]; 1 μg/ml, Donor A/Donor B): 5545 cpm
- 3H-thymidine uptake ([1]; 1 μg/ml, Donor C/Donor D): 5601 cpm
- suppressive activity in human allogenic MLR (in words) [1]: exhibited suppressive activity in human allogenic MLR in a concentration-dependent manner
- inhibition at 10 pg/mL ([1]; Homo sapiens, Lymphocyte, 0.00001 μg/ml, Donor A/Donor B, read-out: Suppression): 0%
- inhibition at 0.0001 µg/mL [1, 3]: 34.4%
- inhibition at 0.0001 µg/mL [1, 4]: 22.1%
- inhibition at 0.001 µg/mL [1, 5]: 58.5%
- inhibition at 0.001 µg/mL [1, 6]: 65.8%
- inhibition at 0.01 µg/mL [1, 7]: 61.4%
- inhibition at 0.01 µg/mL [1, 8]: 72.3%
- inhibition at 0.1 µg/mL [1, 9]: 64.8%
- inhibition at 0.1 µg/mL [1, 10]: 78.3%
- inhibition at 1 µg/mL [1, 11]: 56.9%
- inhibition at 1 µg/mL [1, 12]: 73.7%
- 3H-thymidine uptake ([2]; 0.0001 μg/ml, Table 1A): 15747 cpm
- 3H-thymidine uptake ([2]; 0.0001 μg/ml, Table 1B): 4485 ± 812 cpm
- Suppression ([2]; 0.0001 μg/ml, Table 1B): 18.1%
- 3H-thymidine uptake ([2]; 0.001 μg/ml, Table 1A): 2384 cpm
- 3H-thymidine uptake ([2]; 0.001 μg/ml, Table 1B): 6101 ± 356 cpm
- Suppression ([2]; 0.001 μg/ml, Table 1B): 0%
- 3H-thymidine uptake ([2]; 0.01 μg/ml, Table 1A): 1421 cpm
- 3H-thymidine uptake ([2]; 0.01 μg/ml, Table 1B): 1013 ± 314 cpm
- 3H-thymidine uptake ([2]; 0.1 μg/ml, Table 1A): 1091 cpm
- 3H-thymidine uptake ([2]; 0.1 μg/ml, Table 1B): 359 ± 54 cpm
- 3H-thymidine uptake ([2]; 1 μg/ml, Table 1A): 1163 cpm
- 3H-thymidine uptake ([2]; 1 μg/ml, Table 1B): 52 ± 24 cpm
- inhibition at 0.0001 µg/mL ([2]; 0.0001 μg/ml, Table 1A): 16%
- inhibition at 0.001 µg/mL ([2]; 0.001 μg/ml, Table 1A): 95.5%
- inhibition at 0.01 µg/mL ([2]; 0.01 μg/ml, Table 1A): 100%
- inhibition at 0.01 µg/mL ([2]; 0.01 μg/ml, Table 1B): 92.2%
- inhibition at 0.1 µg/mL ([2]; 0.1 μg/ml, Table 1A): 100%
- inhibition at 0.1 µg/mL ([2]; 0.1 μg/ml, Table 1B): 100%
- inhibition at 1 µg/mL ([2]; 1 μg/ml, Table 1A): 100%
- inhibition at 1 µg/mL ([2]; 1 μg/ml, Table 1B): 100%
- IC50 [2]: 0.00025 µg/mL (≈ 0.000645 µM)

Compound: CCCCCCC1(CCCCCC/C=C/C[C@@H](O)[C@H](O)[C@@](N)(CO)C(=O)O)SCCS1 [Example 3]
- optical density (OD570) (CTLL-2 cells; 0.001 μg/ml, Table 6A): 0.551
- optical density (OD570) (CTLL-2 cells; 0.01 μg/ml, Table 6A): 0.449
- optical density (OD570) (CTLL-2 cells; 0.1 μg/ml, Table 6A): 0.471
- optical density (OD570) (CTLL-2 cells; 1 μg/ml, Table 6A): 0.152
- inhibition at 0.001 µg/mL (CTLL-2 cells; Mus musculus, CTLL-2, 68 h, 0.001 μg/ml, Table 6A, read-out: Suppression): 6%
- inhibition at 0.01 µg/mL (CTLL-2 cells; Mus musculus, CTLL-2, 68 h, 0.01 μg/ml, Table 6A, read-out: Suppression): 23.4%
- inhibition at 0.1 µg/mL (CTLL-2 cells; Mus musculus, CTLL-2, 68 h, 0.1 μg/ml, Table 6A, read-out: Suppression): 19.7%
- inhibition at 1 µg/mL (CTLL-2 cells; Mus musculus, CTLL-2, 68 h, 1 μg/ml, Table 6A, read-out: Suppression): 74.2%
- 3H-thymidine uptake ([1]; 0.0001 μg/ml, Donor A/Donor B): 10700 cpm
- 3H-thymidine uptake ([1]; 0.0001 μg/ml, Donor C/Donor D): 18512 cpm
- 3H-thymidine uptake ([1]; 0.001 μg/ml, Donor A/Donor B): 7285 cpm
- 3H-thymidine uptake ([1]; 0.001 μg/ml, Donor C/Donor D): 17138 cpm
- 3H-thymidine uptake ([1]; 0.01 μg/ml, Donor A/Donor B): 7790 cpm
- 3H-thymidine uptake ([1]; 0.01 μg/ml, Donor C/Donor D): 15337 cpm
- 3H-thymidine uptake ([1]; 0.1 μg/ml, Donor A/Donor B): 6582 cpm
- 3H-thymidine uptake ([1]; 0.1 μg/ml, Donor C/Donor D): 8187 cpm
- 3H-thymidine uptake ([1]; 1 μg/ml, Donor A/Donor B): 5909 cpm
- 3H-thymidine uptake ([1]; 1 μg/ml, Donor C/Donor D): 5143 cpm
- suppressive activity in human allogenic MLR (in words) [1]: exhibited suppressive activity in human allogenic MLR in a concentration-dependent manner
- inhibition at 0.0001 µg/mL [1, 3]: 10.7%
- inhibition at 0.0001 µg/mL [1, 4]: 7.9%
- inhibition at 0.001 µg/mL [1, 5]: 41.3%
- inhibition at 0.001 µg/mL [1, 6]: 14.9%
- inhibition at 0.01 µg/mL [1, 7]: 36.8%
- inhibition at 0.01 µg/mL [1, 8]: 24.1%
- inhibition at 0.1 µg/mL [1, 9]: 47.6%
- inhibition at 0.1 µg/mL [1, 10]: 60.5%
- inhibition at 1 µg/mL [1, 11]: 53.7%
- inhibition at 1 µg/mL [1, 12]: 76%
- 3H-thymidine uptake ([2]; 0.0001 μg/ml, Table 1A): 17247 cpm
- 3H-thymidine uptake ([2]; 0.001 μg/ml, Table 1A): 16263 cpm
- 3H-thymidine uptake ([2]; 0.01 μg/ml, Table 1A): 13978 cpm
- 3H-thymidine uptake ([2]; 0.1 μg/ml, Table 1A): 14747 cpm
- 3H-thymidine uptake ([2]; 1 μg/ml, Table 1A): 631 cpm
- inhibition at 0.0001 µg/mL ([2]; 0.0001 μg/ml, Table 1A): 7.1%
- inhibition at 0.001 µg/mL ([2]; 0.001 μg/ml, Table 1A): 12.9%
- inhibition at 0.01 µg/mL ([2]; 0.01 μg/ml, Table 1A): 26.5%
- inhibition at 0.1 µg/mL ([2]; 0.1 μg/ml, Table 1A): 21.9%
- inhibition at 1 µg/mL ([2]; 1 μg/ml, Table 1A): 96.2%
- IC50 [2]: 0.25 µg/mL (≈ 0.523 µM)

Reference: patent US5068247A, “2-aminopentanoic acid compounds and their use as immunosuppressants” (priority 1989, dated 1991)
